Reference: patent US6737383B1, “Herbicidal oxadiazolidines” (priority 1999, dated 2004)

What was measured:
[1] = system: bedstraw; test: Test B pre/postemergence bedstraw; type: in vivo, Galium aparine
Summary of the method: (§1)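 Test chemicals in a non-phytotoxic solvent mixture with surfactant were sprayed preemergence onto planted seeds and postemergence onto plants 2 to 18 cm tall (1- to 4-leaf stage). After twelve to sixteen days in a greenhouse, injury was visually rated against untreated controls from 0 (no effect) to 10 (complete control).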

[2] = system: blackgrass; test: Test B pre/postemergence blackgrass; type: in vivo, Alopecurus myosuroides
Summary of the method: as §1

[3] = system: surinam grass; test: Test B pre/postemergence surinam grass; type: in vivo, Brachiaria decumbens
Summary of the method: as §1

[4] = system: smallflower flatsedge; test: Test B flood test smallflower flatsedge; type: in vivo, Cyperus difformis
Summary of the method: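 Flood test on plants grown to the 2-leaf stage; treated plants kept in greenhouse twelve to sixteen days, then visually rated against controls on a 0 (no effect) to 10 (complete control) scale.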

[5] = Postemergence, Rate 62 g/ha, scale 0 to 10, 0 is no effect, 10 is complete control
[6] = Postemergence, Rate 250 g/ha, scale 0 to 10, 0 no effect, 10 complete control
[7] = Preemergence, Rate 62 g/ha, scale 0 to 10 (0 no effect, 10 complete control)
[8] = Preemergence, Rate 125 g/ha, scale 0 to 10 (0 no effect, 10 complete control)
[9] = Preemergence, Rate 250 g/ha, scale of 0 to 10 where 0 is no effect and 10 is complete control
[10] = Preemergence, Rate 500 g/ha, scale 0 (no effect) to 10 (complete control)
[11] = Rate 125 g/ha, Postemergence, scale 0 to 10, 0 no effect, 10 complete control
[12] = Rate 500 g/ha, Postemergence, scale 0 to 10, 0 no effect, 10 complete control
[13] = Rate 500 g/ha, Postemergence, 0 to 10 scale (0 no effect, 10 complete control)
[14] = Rate 1000 g/ha, Preemergence, scale 0 to 10 (0 no effect, 10 complete control)
[15] = Postemergence, Rate 1000 g/ha, scale 0 to 10 (0 no effect, 10 complete control)
[16] = Preemergence, Rate 500 g/ha, scale of 0 to 10 where 0 is no effect and 10 is complete control
[17] = Postemergence, Rate 125 g/ha, scale 0 to 10, 0 is no effect, 10 is complete control
[18] = Postemergence, Rate 250 g/ha, scale 0 to 10, 0 is no effect, 10 is complete control
[19] = Rate 62 g/ha, Postemergence, scale of 0 to 10 where 0 is no effect and 10 is complete control

For `CCN(CC)C(=O)n1oc(=O)n(-c2cccc3c2CCCC3)c1=O` [Compound 89], which “Bedstraw plant response rating” value [1, 5] is on record?
Its value is 0.

What about the “Bedstraw plant response rating” value [1, 6] of the same molecule?
The value was 0.

And the “Bedstraw plant response rating” value [1, 7]?
The value was 0.

What about the “Plant response rating, Bedstraw” value [1, 8] of the same molecule?
Its value is 0.

And the “Plant response rating, Bedstraw” value [1, 9]?
The value was 0.

What about the “Bedstraw plant response rating” value [1, 10] of the same molecule?
The value was 0.

And the “Bedstraw plant response rating” value [1, 11]?
The value was 0.

And the “Bedstraw plant response rating” value [1, 12]?
Its value is 3.

And the “Blackgrass plant response rating” value [2, 5]?
Its value is 0.

And the “Blackgrass plant response rating” value ([2]; Postemergence, Rate 125 g/ha, scale of 0 to 10 where 0 is no effect and 10 is complete control)?
The value was 0.

What about the “Blackgrass plant response rating” value [2, 6] of the same molecule?
The value was 0.

And the “Blackgrass plant response rating” value [2, 7]?
The value was 0.

And the “Plant response rating, Blackgrass” value [2, 8]?
Its value is 0.

And the “Plant response rating, Blackgrass” value [2, 9]?
The value was 0.

And the “Blackgrass plant response rating” value [2, 10]?
Its value is 0.

What about the “Blackgrass plant response rating” value [2, 12] of the same molecule?
The value was 0.

And the “B. signalgrass plant response rating” value [3, 5]?
Its value is 0.

What about the “B. signalgrass plant response rating” value [3, 6] of the same molecule?
The value was 0.

What about the “B. signalgrass plant response rating” value [3, 7] of the same molecule?
The value was 0.

And the “Plant response rating, B. signalgrass” value [3, 8]?
The value was 0.

What about the “Plant response rating, B. signalgrass” value [3, 9] of the same molecule?
The value was 0.

What about the “B. signalgrass plant response rating” value [3, 10] of the same molecule?
Its value is 0.

What about the “B. signalgrass plant response rating” value [3, 11] of the same molecule?
The value was 0.

And the “B. signalgrass plant response rating” value ([3]; Rate 500 g/ha, Postemergence, scale of 0 to 10 where 0 is no effect and 10 is complete control)?
Its value is 0.

And the “S. Flatsedge plant response rating” value ([4]; Postemergence (flood test species), Rate 125 g/ha, scale of 0 to 10 where 0 is no effect and 10 is complete control)?
Its value is 0.

And the “S. Flatsedge plant response rating” value [4, 5]?
Its value is 0.

And the “Plant response rating, S. Flatsedge” value ([4]; Rate 250 g/ha, Postemergence (flood test), scale 0 to 10, 0 is no effect, 10 is complete control)?
Its value is 0.

What about the “S. Flatsedge plant response rating” value ([4]; Rate 500 g/ha, listed under Postemergence (flood test species), scale 0 to 10, 0 no effect, 10 complete control) of the same molecule?
Its value is 0.

Which “Bedstraw plant response rating” value [1, 6] does the source give for `CC(C)N(C(=O)n1oc(=O)n(-c2cc(Cl)cc(Cl)c2)c1=O)C1=CCOCC1` [Compound 9] here?
The value was 0.

And the “Plant response rating, Bedstraw” value [1, 8]?
Its value is 0.

And the “Plant response rating, Bedstraw” value [1, 9]?
Its value is 0.

And the “Bedstraw plant response rating” value [1, 10]?
The value was 0.

And the “Bedstraw plant response rating” value [1, 11]?
The value was 0.

What about the “Bedstraw plant response rating” value [1, 13] of the same molecule?
The value was 0.

And the “Plant response rating, Bedstraw” value [1, 14]?
Its value is 0.

What about the “Blackgrass plant response rating” value [2, 6] of the same molecule?
Its value is 0.

What about the “Blackgrass plant response rating” value [2, 15] of the same molecule?
The value was 3.

And the “Plant response rating, Blackgrass” value [2, 8]?
Its value is 0.

What about the “Plant response rating, Blackgrass” value [2, 9] of the same molecule?
Its value is 0.

What about the “Blackgrass plant response rating” value [2, 10] of the same molecule?
Its value is 0.

And the “Blackgrass plant response rating” value [2, 11]?
The value was 0.

What about the “Blackgrass plant response rating” value [2, 13] of the same molecule?
Its value is 2.

What about the “Plant response rating, Blackgrass” value [2, 14] of the same molecule?
Its value is 0.

What about the “B. signalgrass plant response rating” value [3, 6] of the same molecule?
The value was 0.

What about the “B. signalgrass plant response rating” value [3, 15] of the same molecule?
Its value is 0.

And the “Plant response rating, B. signalgrass” value [3, 8]?
The value was 0.

What about the “Plant response rating, B. signalgrass” value [3, 9] of the same molecule?
Its value is 0.

And the “B. signalgrass plant response rating” value [3, 10]?
Its value is 0.

And the “B. signalgrass plant response rating” value [3, 11]?
Its value is 0.

What about the “B. signalgrass plant response rating” value [3, 13] of the same molecule?
The value was 0.

What about the “Plant response rating, B. signalgrass” value [3, 14] of the same molecule?
The value was 0.

And the “S. Flatsedge plant response rating” value [4, 15]?
Its value is 0.

What about the “S. Flatsedge plant response rating” value ([4]; Rate 125 g/ha, Postemergence section (flood test species), scale 0 to 10, 0 no effect, 10 complete control) of the same molecule?
Its value is 0.

What about the “S. Flatsedge plant response rating” value ([4]; flood test, listed under Postemergence, Rate 250 g/ha, scale 0 to 10, 0 no effect, 10 complete control) of the same molecule?
The value was 0.

With `Cc1nsc(Cl)c1Cn1c(=O)on(C(=O)N(c2ccc(F)cc2)C(C)C)c1=O` [Compound 373] as the molecule, how does the “Plant response rating, Bedstraw” value [1, 7] read?
Its value is 0.

And the “Bedstraw plant response rating (0 to 10 scale)” value ([1]; Preemergence, Rate 125 g/ha)?
Its value is 0.

What about the “Bedstraw plant response rating” value [1, 16] of the same molecule?
Its value is 0.

And the “Plant response rating, Blackgrass” value [2, 17]?
Its value is 0.

What about the “Plant response rating, Blackgrass” value [2, 18] of the same molecule?
The value was 0.

And the “Plant response rating, Blackgrass” value [2, 7]?
Its value is 1.

And the “Blackgrass plant response rating (0 to 10 scale)” value ([2]; Preemergence, Rate 125 g/ha)?
Its value is 3.

What about the “Blackgrass plant response rating” value [2, 9] of the same molecule?
Its value is 5.

What about the “Blackgrass plant response rating” value [2, 16] of the same molecule?
Its value is 7.

What about the “Blackgrass plant response rating” value [2, 19] of the same molecule?
Its value is 0.

And the “Plant response rating, Blackgrass” value [2, 12]?
The value was 0.

What about the “Plant response rating, B. signalgrass” value [3, 17] of the same molecule?
Its value is 0.

What about the “Plant response rating, B. signalgrass” value [3, 18] of the same molecule?
The value was 0.

What about the “Plant response rating, B. signalgrass” value [3, 7] of the same molecule?
Its value is 0.

And the “B. signalgrass plant response rating (0 to 10 scale, 0 is no effect, 10 is complete control)” value ([3]; Preemergence, Rate 125 g/ha)?
The value was 0.

What about the “B. signalgrass plant response rating” value [3, 9] of the same molecule?
Its value is 0.

And the “B. signalgrass plant response rating” value [3, 16]?
Its value is 2.

And the “B. signalgrass plant response rating” value [3, 19]?
The value was 0.

What about the “Plant response rating, B. signalgrass” value [3, 12] of the same molecule?
Its value is 0.

What about the “Plant response rating, S. Flatsedge (0 to 10 scale, 0 is no effect, 10 is complete control)” value ([4]; Rate 62 g/ha, flood test species, Pre-emergence, visual evaluation after twelve to sixteen days) of the same molecule?
The value was 0.

What about the “S. Flatsedge plant response rating (0 to 10 scale, 0 is no effect, 10 is complete control)” value ([4]; Rate 125 g/ha, under heading Pre-emergence, flood test species, visual evaluation after twelve to sixteen days) of the same molecule?
The value was 0.

What about the “S. Flatsedge plant response rating” value ([4]; Rate 250 g/ha, Pre-emergence, flood-test species, scale 0 to 10, 0 is no effect, 10 is complete control) of the same molecule?
The value was 0.

What about the “S. Flatsedge plant response rating” value ([4]; Rate 500 g/ha, Pre-emergence, flood test species, scale 0 to 10 (0 no effect, 10 complete control)) of the same molecule?
The value was 0.
